Experimental data reported in the METLIN SMRT retention time set (Domingo-Almenara et al. 2019).

Assay: gradient 5% acetonitrile 3 min, to 50% in 2 min, to 85% in 15 min, held 3 min, 100 µL/min
Settings: column: Zorbax Extend-C18 2.1 x 50 mm; eluents: water / acetonitrile, 0.1% formic acid
Procedure, shortened: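 Mixtures of ~100 pure standards were chromatographed on a Zorbax Extend-C18 column (2.1 × 50 mm, 1.8 μm) at 100 μL/min using water and acetonitrile, each with 0.1% formic acid. Detection used a quadrupole time-of-flight mass spectrometer in positive and negative ionization mode, and data collection spanned 3 months. Retention time was obtained from adduct peaks picked computationally and each checked manually.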

Compound | RP-LC retention time
Cn1c(=O)n(CC(=O)Nc2ccc(F)cc2F)c(=O)c2cnc(-c3ccccc3)nc21 | 1000 s
O=C(Nc1cccnc1OC1CCNCC1)C1(c2ccccc2)CC1 | 646 s
OCCNc1nc(NCCc2cccs2)nc2c1cnn2-c1ccc(F)cc1 | 698 s
CC(C)NC(=O)c1ccc(OCC2CCN(C(=O)c3ccccc3F)CC2)cc1 | 822 s
CN1C(=O)C(C)(C)c2cc(S(=O)(=O)N3CCN(c4ccccn4)CC3)ccc21 | 633 s
CC(C)CCN1CCC(N2CCN(S(=O)(=O)Cc3cccc(Cl)c3)CC2)C1=O (stereo not drawn) | 699 s
CC1CCN(c2cnn(CC(=O)Nc3cccc(Cl)c3F)c(=O)c2Cl)CC1 | 1020 s
CCn1c(=O)c(C(=O)NCc2ccc(C)o2)nc2cccnc21 | 766 s
COc1ccc(-n2c(C)nc3ccc(NC(=O)c4cccc([N+](=O)[O-])c4C)cc3c2=O)cc1 | 779 s
CCOC(=O)c1ccc(NC(=O)Cn2c(=O)n(-c3ccccc3)c(=O)c3c2cc(C)n3C)cc1 | 854 s
CC(C)(C)NC(=O)NC1CCN(C(=O)c2ccccc2)C1 (stereo not drawn) | 683 s
O=C(c1cc(-c2ccccc2)n[nH]1)N1CCN(c2cc(-c3ccccc3)ncn2)CC1 | 609 s
CCOC(=O)c1c(C)[nH]c(C)c1S(=O)(=O)NCC(=O)N1CCN(c2ccccn2)CC1 | 599 s
CC(C)c1cccc(Nc2nc3ccncc3n(Cc3ccccc3)c2=O)c1 | 911 s
CSc1cccc(NC(=O)Cn2c(=O)n(-c3ccc(F)cc3)c(=O)c3c2cc(C)n3C)c1 | 896 s
O=c1c2cc3c(cc2nc(SCc2nc(-c4cccc(F)c4)no2)n1Cc1ccncc1)OCO3 | 795 s
Cc1nn(C(C)C(=O)NCCCN2CCOCC2)c(=O)c2nn(-c3ccccc3)c(C)c12 (stereo not drawn) | 615 s
Cn1nccc1C(=O)N1CCC(c2noc(-c3ccncc3)n2)C1 (stereo not drawn) | 642 s
CSc1ccc(CNC(=O)c2nnn3c2COC(c2ccc(F)cc2)C3)cc1 (stereo not drawn) | 980 s
CCc1cccc(NC(=O)c2cn(CC)nc2S(=O)(=O)N2CCSCC2)c1 | 1080 s
Cn1nc(-c2nnc(-c3ccc(F)cc3)o2)c2c1CCN(S(=O)(=O)c1ccc(F)cc1F)C2 | 985 s
O=C(Nc1cccc(F)c1)C(=O)c1cn(CC(=O)N2CCOCC2)c2ccccc12 | 902 s
Cc1ccc(-c2nnc(-c3cccc(S(=O)(=O)N(C)C)c3)o2)cc1 | 986 s
CCOc1cccc(CNc2c(-c3nc(C)no3)cnc3nc(C)ccc23)c1 | 724 s
CN(Cc1ccccc1)C(=O)C1(c2ccc(NC(=O)C3CC3)cc2)CCCCC1 | 1060 s
CSc1cccc(NC(=O)C2CCN(C(=O)c3ncn4c3COC(c3ccc(F)cc3)C4)CC2)c1 (stereo not drawn) | 849 s
COc1ccc(CNC(=O)Cc2csc3nc(-c4cccc(Br)c4)cn23)cc1 | 886 s
CSc1ccccc1C(=O)Nc1nc(CN2CCc3ccccc3C2)cs1 | 594 s

Compound | RP-LC retention time
Cc1cc(=O)n(CC(=O)Nc2ccc(F)c(F)c2)c(N2CCCC2)n1 | 671 s
O=C(Nc1cc(-c2ccccn2)no1)c1nccc2ccccc12 | 956 s
Cc1cc(C)c(S(=O)(=O)N2CCCC2c2nc(-c3ccccc3C)no2)c(C)c1 (stereo not drawn) | 1330 s
O=C(c1ccc(-c2nccnc2N2CCCC2)cc1)N1CCN(c2ccccc2)CC1 | 942 s
O=S(=O)(Nc1cccn2ncnc12)c1ccc(F)cc1 | 694 s
COc1cc(-c2noc(-c3nn(-c4cccc(C)c4)ccc3=O)n2)cc(OC)c1OC | 888 s
CN1C(=O)C(C)(C)COc2cc(NS(=O)(=O)Cc3cccc(Cl)c3)ccc21 | 880 s
CCn1ncc(CN2CC(c3nc(CCOCc4ccccc4)no3)C2)c1C | 662 s
CCCc1nc2cccnc2n1C1CCN(C(=O)Nc2cccc(OC)c2)C1 (stereo not drawn) | 617 s
Cc1csc(-c2ccc(N3CCN(C(=O)c4cccs4)CC3)nc2)n1 | 781 s
COc1ccccc1N1CCN(C(=O)c2cn(-c3ccc(NC(=O)C4CC4)cn3)cn2)CC1 | 699 s
COc1cc(OC)c(NC(=O)C2CCN(S(=O)(=O)c3cn(C(C)C)cn3)CC2)cc1Cl | 814 s
Cc1nn(C)c(C)c1S(=O)(=O)N1[C@H]2CC[C@@H]1c1cnc(-c3ccccc3)nc1C2 | 865 s
O=C(NCCO)c1cccc(-c2cc(Nc3ccc(OC(F)(F)F)cc3)ncn2)c1 | 793 s
CCc1nnc2ccc(S(=O)(=O)Nc3cccc(F)c3)cn12 | 714 s
CC(C)c1ccc(NC(=O)Cn2cnc3nc(N4CCCC(C(=O)NC5CC5)C4)sc3c2=O)cc1 (stereo not drawn) | 754 s
Cc1ccc2nc(C)cc(C(=O)NC3CC3)c2c1 | 586 s
CCc1nccn1Cc1noc(-c2ccc(C)cc2)n1 | 648 s
CCOC(=O)CNC(=O)N1CCCC1c1ccccc1Cl (stereo not drawn) | 804 s
Cc1cccc(C(=O)Nc2nc(-c3ccc4c(c3)NC(=O)C(C)O4)c(C)s2)c1 (stereo not drawn) | 979 s
Cc1cc(C)c2c(N3CCSCC3)nc(C(=O)NCCCN3CCCC3)nc2n1 | 552 s
CCOC(=O)C1=C(C)NC(=O)NC1c1c(F)cccc1Cl (stereo not drawn) | 724 s
CCc1cccc(C)c1NC(=O)Cn1c(=O)n(-c2ccccc2)c(=O)c2c1cc(C)n2C | 833 s
Cc1ccn2cc(-c3ccc(NC(=O)c4ccc(F)cc4)cc3)nc2n1 | 648 s
CCC(CO)NCc1ccc(-c2ccc(Cl)cc2Cl)o1 (stereo not drawn) | 692 s
O=C(Cn1c(=O)cc(-c2nc(C3CC3)no2)c2ccccc21)NCCc1ccc(Cl)cc1 | 1000 s
COc1cc(OC)c(NC(=O)Cn2nc(C(=O)N3CCCC3)c3ccccc32)cc1Cl | 897 s

Second part, the molecule after the results:

RP-LC retention time | Compound
604 s | Cc1ccc(C(=O)N2CCN(c3ccccn3)CC2)cc1NC(=O)C1=CSCCO1
810 s | O=C(CSc1nc(N2CCCCC2)nc2ccccc12)Nc1ccc(Br)cc1
984 s | O=C(Cn1nc2c(N3CCc4ccccc4C3)nccn2c1=O)NCCC1=CCCCC1
876 s | O=C(Cc1c[nH]c2ccccc12)Nc1cc(-c2ccsc2)no1
776 s | COc1ccc(NC(=O)c2c[nH]c3nc(C)ccc3c2=O)cc1
685 s | CCCNC(=O)C1CCN(c2ccc(SCC(=O)Nc3cc(C)cc(C)c3)nn2)CC1
1230 s | CC(C)(C)c1ccc(S(=O)(=O)N2CCCCC2C(=O)N2CCN(c3ccc(F)cc3)CC2)cc1 (stereo not drawn)
646 s | COc1ccc(-c2nnc(-c3ccc(C)c(S(=O)(=O)N4CCN(C)CC4)c3)o2)cc1OC
738 s | COc1ccc(OC)c(NC(=O)Cc2csc3nc(-c4ccc(OC)c(OC)c4)cn23)c1
622 s | Cc1nccn1-c1cc(C(C)C)c(C#N)c2nc3ccccc3n12
575 s | CSC[C@H]1O[C@@H](n2cnc3c(N)ncnc32)[C@@H](O)[C@H]1O
864 s | Cc1cc(-c2nnc(C3CCC3)o2)c(C)n1CC(=O)NCc1cc(F)cc(F)c1
575 s | CCc1ccccc1NC(=O)N1CCc2nc[nH]c2C1
807 s | CCc1c(C(=O)NNC(=O)[C@@H](O)c2cc(F)cc(F)c2)ccc(O)c1C
1070 s | COc1ccc(OC)c(NC(=O)N2CCN(c3nc4ccccc4nc3C(F)(F)F)CC2)c1
715 s | O=C(NCCC1CCN(C(=O)Nc2cc(F)ccc2F)CC1)C1CC1
577 s | CN(C)c1ccc(CCNC(=O)C(=O)NCc2ccc3c(c2)OCO3)cc1

RP-LC retention time | Compound
1100 s | CNC(=O)c1c(NC(=O)COc2ccc(Cl)cc2)sc2c1CCC2
638 s | COCCCNC(=O)C1CC(=O)N(c2n[nH]c3cccc(F)c23)C1 (stereo not drawn)
930 s | CC1(C)C(=O)N(CC(=O)N2CCc3ccccc3C2)c2ccccc21
579 s | CCOC(=O)C(=O)NCc1n[nH]c(=O)c2ccccc12
801 s | Cc1cccc(OCc2nc(-c3ccc(NS(C)(=O)=O)cc3)no2)c1
693 s | Cn1nc(C(=O)N2CCCC(C(=O)NC3CC3)C2)c2c1CCN(C(=O)Cc1ccc(Cl)cc1)C2 (stereo not drawn)
726 s | O=C(c1ccc(F)cc1)N1CCCC1c1nc(-c2ccccc2)n[nH]1 (stereo not drawn)
801 s | O=C(CC1CCCC1)Nc1ccc(N2CCN(C3CCCC3)C2=O)nc1
726 s | CSc1ccc(NC(=O)N2CCC(c3nc(C(=O)N4CCOCC4)c(C)o3)CC2)cc1
671 s | COc1ccc(CNC(=O)N2CCC(c3nc(C(=O)N4CCOCC4)c(C)o3)CC2)cc1
827 s | CCCCC(=O)Nc1ccc(OCc2cc(C(=O)NC(C)C)no2)cc1
636 s | Cc1cc(C(=O)NC2CC2)c2cc(C(C)C)ccc2n1
873 s | COc1ccc(Cl)cc1NC(=O)C1Oc2ccccc2NC1=O (stereo not drawn)
826 s | CCN(CC)C(=O)c1ccc2c(c1)N(Cc1ccc(F)cc1)C(=O)CO2
846 s | CCCN(CC1CCOC1)C(=O)Nc1ccccc1Cl (stereo not drawn)
657 s | CCCNC(=O)C1CCCN(c2ccc(SCC(=O)Nc3ccc4c(c3)OCCO4)nn2)C1 (stereo not drawn)
